Assay results taken from paper PMC5473904, “Epigenetic and antitumor effects of platinum(IV)-octanoato conjugates” (Scientific Reports, 2017).

Columns and labels:
[1] = system: PNT1a; assay: MTT cytotoxicity, 72 h; type: cell-based; details: platinum complexes
[2] = system: A2780 human ovarian carcinoma cells; assay: MTT cytotoxicity, 72 h; type: cell-based; details: for IC50: MTT, 72 h, platinum complexes
[3] = system: DNA from A2780 cells; assay: Platinum content on DNA isolated from treated cells (ICP-MS); type: cell-based, human; details: for Platinum content on DNA / Platinum on DNA, % from the total intracellular Pt amount: A2780, 24 h, 0.35 µM; for Platinum on DNA, % from the total intracellular Pt amount: rough estimate from Tables 2 and 3
Description: (§1) As for antitumor cisplatin and its direct derivatives, DNA is believed to be the target also for Pt(IV) prodrugs examined in the present work.
(§2) The cells were seeded in 150 cm^2 culture flasks at a density 1 × 10^7 cells/flask (67 000 cells/cm^2). After 48-h incubation, the cells were treated with the compounds (0.35 μM) for 24 h. The attached cells were washed twice with PBS (4 °C). As mentioned in the preceding paragraph, 75% of cells were used for analysis of platinum bound to DNA, remaining 25% were used for estimations of cellular accumulation of platinum. Cells were then lysed in DNAzol (DNAzol® genomic DNA isolation reagent, MRC) supplemented with RNase A (100 μg mL^−1). The genomic DNA was precipitated from the lysate with ethanol, dried and resuspended in water. The DNA content in each sample was determined by UV spectrophotometry. The DNA samples were digested in the presence of hydrochloric acid (11 M) using high-pressure microwave mineralization system (MARS5, CEM). The platinum content was determined by ICP-MS. Experiments were performed in triplicate and the values are the means ± SD.

[4] = system: DNA from HCT-116 cells; assay: as above; type: cell-based, human; details: for Platinum content on DNA / Platinum on DNA, % from the total intracellular Pt amount: HCT-116, 24 h, 0.35 µM; for Platinum on DNA, % from the total intracellular Pt amount: rough estimate from Tables 2 and 3
Description: as §1, §2

[5] = system: HSF human primary skin fibroblasts; assay: MTT cytotoxicity, 72 h; type: cell-based; details: platinum complexes
[6] = system: MRC-5 (PD30) human fetal lung fibroblasts; assay: MTT cytotoxicity, 72 h; type: cell-based; details: platinum complexes
[7] = system: LNCaP human prostate adenocarcinoma cells; assay: MTT cytotoxicity, 72 h; type: cell-based; details: platinum complexes

SMILES	IC50 [1] [nM]	IC50 [2] [nM]	Platinum content on DNA [3] [pg Pt/µg DNA]	Platinum on DNA, % from the total intracellular Pt amount [3] [%]	Platinum content on DNA [4] [pg Pt/µg DNA]	Platinum on DNA, % from the total intracellular Pt amount [4] [%]	IC50 [5] [nM]	IC50 [6] [nM]	IC50 [7] [nM]	Increase of cytotoxicity vs. cisplatin ([2]; A2780, Fig. 2A) [x]	Increase of cytotoxicity vs. Pt(IV)diAc ([2]; A2780, Fig. 2C) [x]	Increase of DNA platination vs. cisplatin ([3]; A2780, Fig. 2A) [x]	Increase of DNA platination vs. Pt(IV)diAc ([3]; A2780, Fig. 2C) [x]	Increase of DNA platination vs. cisplatin ([4]; HCT-116, Fig. 2B) [x]	Increase of DNA platination vs. Pt(IV)diAc ([4]; HCT-116, Fig. 2D) [x]
CC(=O)[O][Pt]([NH2])([NH2])([Cl])([Cl])[O]C(C)=O [Pt(IV)diAc, cis, cis, trans-[Pt(IV)(NH3)2Cl2(Ac)2]]	2480 ± 100	5300 ± 1000	1.1 ± 0.4	1.9	1.3 ± 0.1	2.0	–	–	–	–	–	–	–	–	–
CCCCCCCC(=O)[O][Pt]([NH2])([NH2])([Cl])([Cl])[O]C(=O)CCCCCCC [Pt(IV)diOA, cis, cis, trans-[Pt(IV)(NH3)2Cl2(OA)2]]	22 ± 1	41 ± 1	43.3 ± 5.3	13.0	123.1 ± 5.1	11.9	77 ± 1	52 ± 3	52 ± 5	68	129	28	39	77	95
N.N.[Cl][Pt][Cl] [cisplatin, reference compound]	2500 ± 320	2800 ± 100	1.5 ± 0.6	2.0	1.6 ± 0.2	2.2	69000 ± 870	10600 ± 380	8540 ± 1780	–	–	–	–	–	–
